Test results from paper PMC12267067, “Targeting GRPR for sex hormone-dependent cancer after loss of E-cadherin” (Nature, 2025).
No end group written: not given here.

Experiments:
[1] = tested on: mouse melanoma cell lines (1057, 1064, 1181, 1039, 1456, 1014); assay: Matrigel invasion assay, mouse melanoma cells; assay type: cell-based; settings: 24 h
Method: (§1) Matrigel invasion assays were done in transwell plates with 8.0-µm pores (353097, Falcon) coated with 100 µl of 200 µg ml^−1 Matrigel. Depending on the experiments, cells were seeded directly or 24 h after transfection in low-serum medium (0.5% FCS for murine cells and 1% for human cell lines) with 10 nM GRP, 1 µM RC-3095, and/or 1 µM IC 182,780, or in 10% FCS. Then, 24 hours after stimulation, inserts were washed with PBS and non-invading cells were removed. Cells in the inserts were fixed in methanol at −20 °C overnight. The inserts were rinsed and the membrane carefully removed using a sharp scalpel. The membrane was mounted in prolong glass DAPI (1.5 µg ml^−1). Assays were performed in triplicate and automatic counting of invading cells was done using an Image/Fiji macro (10.5281/zenodo.14509394). Sequences of siRNAs are given in Supplementary Table 11.

[2] = tested on: human melanoma cell lines (MDA-MB-435S, Dauv-1, 501mel-GRPR); assay: Matrigel invasion assay, human melanoma cells; assay type: cell-based; settings: 10 nM GRP and/or 1 µM RC-3095, 24 h, 1% FCS
Method: as §1

[3] = tested on: YAP1 activation signature; assay: YAP1 activation signature (GSEA) and Yap1 score by RNA-seq, murine melanoma cell lines; assay type: cell-based, mouse; settings: 4 h, 10 nM GRP
Method: The transcriptome, copy-number alteration, mutations and corresponding clinical data of the TCGA–SKCM (n = 473), TCGA–BRCA (n = 1,215), TCGA–STAD (n = 450), TCGA–LUSC (n = 553) and TCGA–KIRC (n = 606) datasets were retrieved from the National Cancer Institute Genomic Data Commons repository using the TCGAbiolinks R package in August 2022 (ref. [51]). The mRNA levels were calculated from RNA-sequencing read counts using RNA-Seq V2 RSEM and normalized to TPM. Expression of CDH1, CCND1, BRAF and KRAS was modelled over time using LOWESS smoothing with 1,860 points. Expression levels from acral melanoma were retrieved from GEO under accession number GSE162682. Survival analyses were carried out by separating the cohort into two groups according to gene expression. The threshold was set to 1 TPM, commonly considered to be the limit for sufficient protein expression of the transcript. The negative group was set to an expression 0.1 TPM or less to have clear separation in terms of expression (factor 10) from the positive group. The YAP and melanoma phenotypic state scores were obtained by averaging the expression of detailed marker genes, or for the mice, from their murine orthologues as described in ref. [52]. The pigmentation state was defined by the expression of MITF, MLANA, TRPM1, DCT and TYR; the starved-like melanoma cell phenotype by the expression of CD36, DLX5, IP6K3, PAX3 and TRIM67; the invasive state by the expression of AXL, CYR61, TCF4, LOXL2, TNC and WNT5A; and the neural crest cell-like phenotypic state by the expression of AQP1, GFRA2, L1CAM, NGFR, SLC22A17 and TMEM176B[52]. The scoring of YAP1 activation was determined from the expression of CYR61, CTGF, TEAD4, LATS2 and CRIM1. Yap scoring was obtained by averaging the fold change of each Yap1 target. The anoikis-resistance score was calculated on the basis of the expression of S100A7A, MTPN, ATP10B, S100A8, RSAD2, RENBP, CDHR1 and CD36. The ER-activation score was calculated according to the expressions of GATA4, SDK2, EGR3, IL19, GSG1L, RSPO1, PGR, IL24 and PDZK1. Expression data from human and mouse normal tissue were downloaded from the Human Protein Atlas (https://www.proteinatlas.org/) and from the EBI expression atlas (https://www.ebi.ac.uk/gxa/home), respectively, both accessed on 7 October 2022. The anatogram was generated using the gganatogram R package.
RNA was extracted from cells and mouse tumours using the miRNeasy kit (Qiagen, 217004), according to the manufacturer’s protocol. RNA integrity (RIN) was measured using an Agilent Bioanalyser 2100 (Agilent Technologies) and an RNA nano 6000 kit (5067-1511, Agilent Technologies). Only RNA with an RNA integrity number (RIN) of more than 7 was used for analysis. This threshold led to the sequencing of 72 mouse melanoma cell lines, 36 human melanoma cell lines and 32 mouse tumours. RNA concentrations were measured using a NanoDrop (NanoDrop Technologies). […] The libraries were equimolarly pooled and subjected to qPCR quantification using the KAPA library quantification kit (Roche). Sequencing was carried out on a NovaSeq 6000 instrument (Illumina) based on a 2 × 100 cycle mode (paired-end reads, 100 bases) using an S1 flow cell to obtain approximately 35 million clusters (70 million raw paired-end reads) per sample. Reads were mapped to the mm10 mouse reference genome (gencode m13 version-GRCm38.p5) or hg38 human reference genome (gencode 42 version-GRCh38.p13) using STAR[60]. […]

[4] = tested on: YAP1 activation signature; assay: YAP1 activation signature (GSEA) and YAP1 score by RNA-seq, human melanoma cell lines; assay type: cell-based; settings: 4 h, 10 nM GRP
Method: The transcriptome, copy-number alteration, mutations and corresponding clinical data of the TCGA–SKCM (n = 473), TCGA–BRCA (n = 1,215), TCGA–STAD (n = 450), TCGA–LUSC (n = 553) and TCGA–KIRC (n = 606) datasets were retrieved from the National Cancer Institute Genomic Data Commons repository using the TCGAbiolinks R package in August 2022 (ref. [51]). The mRNA levels were calculated from RNA-sequencing read counts using RNA-Seq V2 RSEM and normalized to TPM. Expression of CDH1, CCND1, BRAF and KRAS was modelled over time using LOWESS smoothing with 1,860 points. Expression levels from acral melanoma were retrieved from GEO under accession number GSE162682. Survival analyses were carried out by separating the cohort into two groups according to gene expression. The threshold was set to 1 TPM, commonly considered to be the limit for sufficient protein expression of the transcript. The negative group was set to an expression 0.1 TPM or less to have clear separation in terms of expression (factor 10) from the positive group. […] The scoring of YAP1 activation was determined from the expression of CYR61, CTGF, TEAD4, LATS2 and CRIM1. […] The anoikis-resistance score was calculated on the basis of the expression of S100A7A, MTPN, ATP10B, S100A8, RSAD2, RENBP, CDHR1 and CD36. The ER-activation score was calculated according to the expressions of GATA4, SDK2, EGR3, IL19, GSG1L, RSPO1, PGR, IL24 and PDZK1. […]
RNA was extracted from cells and mouse tumours using the miRNeasy kit (Qiagen, 217004), according to the manufacturer’s protocol. RNA integrity (RIN) was measured using an Agilent Bioanalyser 2100 (Agilent Technologies) and an RNA nano 6000 kit (5067-1511, Agilent Technologies). […] RNA concentrations were measured using a NanoDrop (NanoDrop Technologies). […] The libraries were equimolarly pooled and subjected to qPCR quantification using the KAPA library quantification kit (Roche). […] Reads were mapped to the mm10 mouse reference genome (gencode m13 version-GRCm38.p5) or hg38 human reference genome (gencode 42 version-GRCh38.p13) using STAR[60]. […]

[5] = tested on: ECAD in 501mel cells with and without GRPR; assay: Western blot of ECAD with and without GRP; assay type: cell-based, human; settings: 501mel cells expressing GRPR, 10 nM GRP
Method: Whole-cell lysates were prepared and analysed as described previously. The primary antibodies used were: E-cadherin (610182, BD Transduction Laboratories, dilution 1/1,000); ERα (MA1-27107, Invitrogen, dilution 1/500); YAP (14074, Cell Signaling, dilution 1/1,000); β-actin (A5441, Sigma, dilution 1/5,000); and vinculin (4650, Cell Signaling, dilution 1/5,000). All raw data are provided in Supplementary Fig. 1.

GRP: GRPR's natural agonist, endogenous ligand of GRPR (4011670 bachem) (VPLPAGGGTVLTKMYPRGNHWAVGHLM; not fully specified; ends and bridges not checked; UniProt P07492 24-50, looked up)
invasion (number of invading cells), GRPR-positive mouse lines ([1]; 1057 (also 1064, GRPR-transduced 1014 and 1181 for RC-3095), 10 nM GRP, 1 µM RC-3095 and/or 1 µM ICI, Matrigel 200 µg ml−1, 0.5% FCS): promoted invasion | invasion (number of invading cells), Grpr-negative mouse lines ([1]; 1181 male Ecad, 1039 female Ecad, 1456 male ΔEcad, 10 nM GRP and/or 1 µM ICI): but not in Ecad-positive (1181 male and 1039 female) or Ecad-negative male (1456) cells | invasion (number of invading cells), GRPR-positive human lines [2]: promoted | GSEA YAP activation, GRP vs. Mock: NES ([3]; 1014-Ct, female Ecad, Grpr-negative, FDR 0.585): 0.936 | GSEA YAP activation, GRP vs. Mock: NES ([3]; 1014-Grpr, female Ecad, FDR <0.0001): 2.77 | GSEA YAP activation, GRP vs. Mock: NES ([3]; 1064-par, female ΔEcad, FDR <0.0001): 2.34 | GSEA YAP activation, GRP vs. Mock: NES ([3]; 1181-Ct, male Ecad, Grpr-negative, FDR 0.986): 0.527 | GSEA YAP activation, GRP vs. Mock: NES ([3]; 1181-Grpr, male Ecad, FDR 0.003): 1.66 | GSEA YAP activation, GRP vs. Mock: NES ([4]; 501mel-GRPR, FDR <0.0001): 2.07 | GSEA YAP activation, GRP vs. Mock: NES ([4]; Dauv-1, FDR <0.0001): 2.21 | GSEA YAP activation, GRP vs. Mock: NES ([4]; MDA-MB-435S, FDR =0.0408): 1.32 | ECAD protein level [5]: lower
